Test system: yeast genes (expressed mRNA)
Test: DNA chip measurement of expressed mRNA of yeast genes after culture with a toxic chemical substance
Type: cell-based, Saccharomyces cerevisiae S288C
How it was run: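 Two-hour exposure of growing S. cerevisiae S288C (YPD, 25° C) to a sublethal toxicant preceded RNA isolation. Fluorescent cDNA was hybridized to a whole-genome array; a treated-to-untreated signal ratio of two or more was taken as significant.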

## CCCCC[C@H](O)CC(=O)CCc1ccc(O)c(OC)c1 [(13), Gingerol]
Yeast gene YKL065C, cultured two hours with substance
  The level of expressed mRNA in the presence of chemical substance/The level of expressed mRNA in the absence of chemical substance: 3.0
Yeast gene YKL097C, cultured two hours with the chemical substance
  level of expressed mRNA in the presence of chemical substance / level in the absence of chemical substance: 0.9
Yeast gene YKL100C, cultured two hours with the chemical substance
  level of expressed mRNA in the presence of chemical substance / level in the absence of chemical substance: 1.3
Yeast gene YKL153W, cultured two hours with substance
  The level of expressed mRNA in the presence of chemical substance/The level of expressed mRNA in the absence of chemical substance: 2.4
Yeast gene YKL194C, mitochondria-located protein gene, cultured two hours with substance
  The level of expressed mRNA in the presence of chemical substance/The level of expressed mRNA in the absence of chemical substance: 1.1
Yeast gene YKL218C
  The level of expressed mRNA in the presence of chemical substance/The level of expressed mRNA in the absence of chemical substance: 5.1
Yeast gene YKR018C, cultured two hours with substance
  The level of expressed mRNA in the presence of chemical substance/The level of expressed mRNA in the absence of chemical substance: 3.0
Yeast gene YKR040C, cultured two hours with the chemical substance
  level of expressed mRNA in the presence of chemical substance / level in the absence of chemical substance: 0.6
Yeast gene YKR046C, cultured two hours with substance
  The level of expressed mRNA in the presence of chemical substance/The level of expressed mRNA in the absence of chemical substance: 2.8
Yeast gene YKR075C, cultured two hours with substance
  The level of expressed mRNA in the presence of chemical substance/The level of expressed mRNA in the absence of chemical substance: 3.8
Yeast gene YLL041C, mitochondria-located protein gene, cultured two hours with substance
  The level of expressed mRNA in the presence of chemical substance/The level of expressed mRNA in the absence of chemical substance: 1.0
Yeast gene YLR041W, cultured two hours with the chemical substance
  The level of expressed mRNA in the presence of chemical substance/The level of expressed mRNA in the absence of chemical substance: 0.3
Yeast gene YLR217W, cultured two hours with substance
  The level of expressed mRNA in the presence of chemical substance/The level of expressed mRNA in the absence of chemical substance: 3.8
Yeast gene YLR226W, cultured two hours with the chemical substance
  level of expressed mRNA in the presence of chemical substance / level in the absence of chemical substance: 0.7
Yeast gene YLR338W, cultured two hours with the chemical substance
  level of expressed mRNA in the presence of chemical substance / level in the absence of chemical substance: 1.2
Yeast gene YLR340W
  The level of expressed mRNA in the presence of chemical substance/The level of expressed mRNA in the absence of chemical substance: 0.1
Yeast gene YLR350W, cultured two hours with substance
  The level of expressed mRNA in the presence of chemical substance/The level of expressed mRNA in the absence of chemical substance: 4.5
Yeast gene YLR387C, cultured two hours with substance
  The level of expressed mRNA in the presence of chemical substance/The level of expressed mRNA in the absence of chemical substance: 3.6
Yeast gene YLR388W
  The level of expressed mRNA in the presence of chemical substance/The level of expressed mRNA in the absence of chemical substance: 0.1
Yeast gene YLR392C, cultured two hours with the chemical substance
  level of expressed mRNA in the presence of chemical substance / level in the absence of chemical substance: 1.4
Yeast gene YLR415C, cultured two hours with the chemical substance
  level of expressed mRNA in the presence of chemical substance / level in the absence of chemical substance: 1.0
Yeast gene YLR427W, cultured two hours with the chemical substance
  level of expressed mRNA in the presence of chemical substance / level in the absence of chemical substance: 2.5
Yeast gene YML013W, cultured two hours with the chemical substance
  level of expressed mRNA in the presence of chemical substance / level in the absence of chemical substance: 1.2
Yeast gene YML029W, cultured two hours with the chemical substance
  level of expressed mRNA in the presence of chemical substance / level in the absence of chemical substance: 2.0
Yeast gene YML041C, cultured two hours with the chemical substance
  level of expressed mRNA in the presence of chemical substance / level in the absence of chemical substance: 1.2
Yeast gene YML054C, cultured for two hours with substance
  The level of expressed mRNA in the presence of chemical substance/The level of expressed mRNA in the absence of chemical substance: 2.8
Yeast gene YML079W, cultured two hours with the chemical substance
  level of expressed mRNA in the presence of chemical substance / level in the absence of chemical substance: 1.6
Yeast gene YML100W, cultured for two hours with substance
  The level of expressed mRNA in the presence of chemical substance/The level of expressed mRNA in the absence of chemical substance: 3.8
Yeast gene YMR068W, cultured two hours with the chemical substance
  level of expressed mRNA in the presence of chemical substance / level in the absence of chemical substance: 1.4
Yeast gene YMR071C, cultured two hours with the chemical substance
  level of expressed mRNA in the presence of chemical substance / level in the absence of chemical substance: 1.3
Yeast gene YMR095C, cultured two hours with substance
  The level of expressed mRNA in the presence of chemical substance/The level of expressed mRNA in the absence of chemical substance: 3.4
Yeast gene YMR160W, cultured two hours with the chemical substance
  level of expressed mRNA in the presence of chemical substance / level in the absence of chemical substance: 1.6
Yeast gene YMR191W, cultured two hours with substance
  The level of expressed mRNA in the presence of chemical substance/The level of expressed mRNA in the absence of chemical substance: 3.4
Yeast gene YMR203W, mitochondria-located protein gene, cultured two hours with substance
  The level of expressed mRNA in the presence of chemical substance/The level of expressed mRNA in the absence of chemical substance: 1.1
Yeast gene YMR210W, cultured two hours with the chemical substance, DNA chip fluorescence ratio
  The level of expressed mRNA in the presence of chemical substance/The level of expressed mRNA in the absence of chemical substance: 1.0
Yeast gene YNL026W, cultured two hours with the chemical substance
  level of expressed mRNA in the presence of chemical substance / level in the absence of chemical substance: 1.7
Yeast gene YNL058C, cultured two hours with the chemical substance
  level of expressed mRNA in the presence of chemical substance / level in the absence of chemical substance: 0.6
Yeast gene YNL063W, cultured two hours with the chemical substance
  level of expressed mRNA in the presence of chemical substance / level in the absence of chemical substance: 1.5
Yeast gene YNL069C
  The level of expressed mRNA in the presence of chemical substance/The level of expressed mRNA in the absence of chemical substance: 0.1
Yeast gene YNL115C, cultured two hours with substance
  The level of expressed mRNA in the presence of chemical substance/The level of expressed mRNA in the absence of chemical substance: 2.5
Yeast gene YNL155W, cultured two hours with substance
  The level of expressed mRNA in the presence of chemical substance/The level of expressed mRNA in the absence of chemical substance: 4.4
Yeast gene YNL176C, cultured two hours with the chemical substance
  level of expressed mRNA in the presence of chemical substance / level in the absence of chemical substance: 0.6
Yeast gene YNL194C, cultured two hours with the chemical substance
  level of expressed mRNA in the presence of chemical substance / level in the absence of chemical substance: 1.5
Yeast gene YNL200C, cultured two hours with the chemical substance
  level of expressed mRNA in the presence of chemical substance / level in the absence of chemical substance: 1.1
Yeast gene YNL208W, cultured two hours with substance
  The level of expressed mRNA in the presence of chemical substance/The level of expressed mRNA in the absence of chemical substance: 1.7
Yeast gene YNL234W, cultured two hours with substance
  The level of expressed mRNA in the presence of chemical substance/The level of expressed mRNA in the absence of chemical substance: 2.5
Yeast gene YNL241C, cultured for two hours with substance
  The level of expressed mRNA in the presence of chemical substance/The level of expressed mRNA in the absence of chemical substance: 4.9
Yeast gene YNL253W, cultured two hours with the chemical substance
  level of expressed mRNA in the presence of chemical substance / level in the absence of chemical substance: 1.1
Yeast gene YNL276C, cultured two hours with the chemical substance
  level of expressed mRNA in the presence of chemical substance / level in the absence of chemical substance: 1.5
Yeast gene YNR051C, cultured two hours with the chemical substance
  level of expressed mRNA in the presence of chemical substance / level in the absence of chemical substance: 2.1
Yeast gene YOL026C, cultured two hours with the chemical substance
  level of expressed mRNA in the presence of chemical substance / level in the absence of chemical substance: 1.2
Yeast gene YOL030W, cultured two hours with the chemical substance
  The level of expressed mRNA in the presence of chemical substance/The level of expressed mRNA in the absence of chemical substance: 1.7
Yeast gene YOL036W, cultured two hours with substance
  The level of expressed mRNA in the presence of chemical substance/The level of expressed mRNA in the absence of chemical substance: 2.5
Yeast gene YOL039W
  The level of expressed mRNA in the presence of chemical substance/The level of expressed mRNA in the absence of chemical substance: 0.1
Yeast gene YOL084W, cultured two hours with substance
  The level of expressed mRNA in the presence of chemical substance/The level of expressed mRNA in the absence of chemical substance: 6.4
Yeast gene YOL120C
  The level of expressed mRNA in the presence of chemical substance/The level of expressed mRNA in the absence of chemical substance: 0.1
Yeast gene YOR022C, cultured two hours with the chemical substance
  level of expressed mRNA in the presence of chemical substance / level in the absence of chemical substance: 1.7
Yeast gene YOR087W, cultured two hours with the chemical substance
  level of expressed mRNA in the presence of chemical substance / level in the absence of chemical substance: 1.2
Yeast gene YOR138C, cultured two hours with the chemical substance
  level of expressed mRNA in the presence of chemical substance / level in the absence of chemical substance: 1.8
Yeast gene YOR152C, cultured two hours with substance
  The level of expressed mRNA in the presence of chemical substance/The level of expressed mRNA in the absence of chemical substance: 7.4
Yeast gene YOR153W
  The level of expressed mRNA in the presence of chemical substance/The level of expressed mRNA in the absence of chemical substance: 11.8
Yeast gene YOR173W, cultured two hours with substance
  The level of expressed mRNA in the presence of chemical substance/The level of expressed mRNA in the absence of chemical substance: 3.8
Yeast gene YOR187W, mitochondria-located protein gene, cultured two hours with substance
  The level of expressed mRNA in the presence of chemical substance/The level of expressed mRNA in the absence of chemical substance: 0.7
Yeast gene YOR253W, cultured two hours with the chemical substance
  level of expressed mRNA in the presence of chemical substance / level in the absence of chemical substance: 0.5
Yeast gene YOR267C, cultured two hours with the chemical substance
  level of expressed mRNA in the presence of chemical substance / level in the absence of chemical substance: 1.4
Yeast gene YOR325W, cultured two hours with the chemical substance
  level of expressed mRNA in the presence of chemical substance / level in the absence of chemical substance: 0.6
Yeast gene YOR382W, cultured two hours with substance
  The level of expressed mRNA in the presence of chemical substance/The level of expressed mRNA in the absence of chemical substance: 1.7
Yeast gene YOR385W, cultured two hours with the substance
  The level of expressed mRNA in the presence of chemical substance/The level of expressed mRNA in the absence of chemical substance: 2.8
Yeast gene YPL005W, cultured two hours with the chemical substance
  level of expressed mRNA in the presence of chemical substance / level in the absence of chemical substance: 1.2
Yeast gene YPL087W, cultured two hours with substance
  The level of expressed mRNA in the presence of chemical substance/The level of expressed mRNA in the absence of chemical substance: 4.4
Yeast gene YPL150W, cultured two hours with the chemical substance
  level of expressed mRNA in the presence of chemical substance / level in the absence of chemical substance: 2.1
Yeast gene YPL152W, cultured two hours with the chemical substance
  level of expressed mRNA in the presence of chemical substance / level in the absence of chemical substance: 1.4
Yeast gene YPL168W, cultured two hours with the chemical substance
  level of expressed mRNA in the presence of chemical substance / level in the absence of chemical substance: 1.0
Yeast gene YPL180W, cultured two hours with the chemical substance
  level of expressed mRNA in the presence of chemical substance / level in the absence of chemical substance: 1.5
Yeast gene YPL188W, cultured two hours with the chemical substance
  level of expressed mRNA in the presence of chemical substance / level in the absence of chemical substance: 0.9
Yeast gene YPL221W, cultured two hours with the chemical substance
  level of expressed mRNA in the presence of chemical substance / level in the absence of chemical substance: 1.0
Yeast gene YPL222W, cultured two hours with substance
  The level of expressed mRNA in the presence of chemical substance/The level of expressed mRNA in the absence of chemical substance: 3.0
Yeast gene YPL225W, cultured two hours with the chemical substance
  level of expressed mRNA in the presence of chemical substance / level in the absence of chemical substance: 0.8
Yeast gene YPR037C, mitochondria-located protein gene, cultured two hours with substance
  The level of expressed mRNA in the presence of chemical substance/The level of expressed mRNA in the absence of chemical substance: 1.0
Yeast gene YPR049C, cultured two hours with the chemical substance
  level of expressed mRNA in the presence of chemical substance / level in the absence of chemical substance: 1.6
Yeast gene YPR134W, mitochondria-located protein gene, cultured two hours with substance
  The level of expressed mRNA in the presence of chemical substance/The level of expressed mRNA in the absence of chemical substance: 1.1
Yeast gene YPR146C, cultured two hours with the chemical substance
  level of expressed mRNA in the presence of chemical substance / level in the absence of chemical substance: 1.3
Yeast gene YPR148C, cultured two hours with the chemical substance
  level of expressed mRNA in the presence of chemical substance / level in the absence of chemical substance: 1.2
Yeast gene YPR172W, cultured two hours with the chemical substance
  level of expressed mRNA in the presence of chemical substance / level in the absence of chemical substance: 1.3

— patent publication US20100041089A1, “IMPROVED METHOD FOR DETECTING CHEMICAL […]” (priority 2006, published 2010)
